This is an account of results in PubChem BioAssay (NCI).

What all share (assay): NCI tumour cell line growth inhibition, 48 h
Assay [1] relates to SR leukemia.
The subject of assay [2] is DMS 114 small cell lung.
For assay [3], the system named is DLD-1 colon.
In assay [4] the test system is TK-10 renal.
Assay [5] relates to SF-295 CNS.
The test system of assay [6] is MCF7 breast.
Assay [7] relates to COLO 205 colon.
For assay [8], the system named is LXFL 529 NSCLC.
Assay [9] deals with XF 498 CNS.
Assay [10] concerns SF-539 CNS.
The subject of assay [11] is DU-145 prostate.
In assay [12] the test system is OVCAR-3 ovarian.

The structures appear in SMILES notation. Values joined by “and” are separate entries in the source; they are usually repeats but may differ in a detail not shown here. Identical values can stand only once.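 Five compound concentrations were applied to cells in 96-well plates for 48 hours; endpoints were derived by simple linear interpolation of the resulting dose-response curve. Abbreviation: GI50, concentration required for 50% inhibition of growth. TGI marks complete inhibition of growth.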 Where only a bound is given, the exact number is not on record here.

Take `COc1cc2c3c(c1OC)-c1cc4c(cc1CC3(C#N)N(C(=O)c1ccccc1)CC2)OCO4` (configuration not stated): the TGI in assay [1] is over 100 µM; in assay [2], over 85.1 µM; in assay [3], over 100 µM; in assay [4], 71 µM; in assay [5] it was 58.7 µM; in [6], over 100 µM. Besides, the TGI in assay [7] was over 100 µM; in assay [8], 56.3 µM; in assay [9] it was 24.8 µM; in assay [10] it was 54.7 µM; in [11], over 100 µM; in assay [12], over 86.6 µM.
Turning to `COC12C(COC(N)=O)C3=C(C(=O)C(C)=C(N)C3=O)N1CC1C2N1C` (configuration not stated), the TGI in assay [1] worked out at 56.5 µM; in assay [3] it was 57.8 µM; in assay [4], 69.5 µM; in [5], 18.1 µM; in [6], 22.3 µM; in [7], 21.6 µM. Besides, the TGI in assay [9] worked out at 21 µM; in assay [10], 46.7 µM; in assay [11], 15.3 µM; in assay [12] it was 35.4 µM.
As for `[N-]=[N+]=N/C1=C/CCCCC(=O)C1`, the TGI in assay [2], in [3], in assay [4], in assay [7], in assay [8] and in assay [9] was over 100 µM throughout.
As for `C=CCN1CCC23c4c5ccc(O)c4OC2C(=NN=C2CCC4(O)C6Cc7ccc(O)c8c7C4(CCN6CC=C)C2O8)CCC3(O)C1C5` (configuration not stated), the TGI is 60.8 µM in assay [2]; over 100 µM in [3]; 43.7 µM in assay [4]; 40.9 µM in assay [5]; 42.1 µM in assay [7]; 88.7 µM in assay [8]. The TGI is 32.9 µM in [9], 33.1 µM in assay [10] and 34.5 µM in [12].
Consider `Cc1ccc(S(=O)OCc2c(C)c(C)c(COS(=O)c3ccc(C)cc3)c(C)c2C)cc1` (configuration not stated), for which the TGI in assay [1], in [2], in [3], in [4], in assay [5] and in assay [7] was over 100 µM throughout. For the same compound, the TGI in [8], in assay [9], in assay [10] and in [12] was over 100 µM each time.
With `CCN(CC)CCSc1c2ccccc2nc2c(OC)ccc(OC)c12`, the TGI is 10.7 µM in assay [1]; 3.24 µM in [2]; 17.3 µM in [4]; 59.4 µM in [5]; over 21.3 µM in assay [8]; over 21.1 µM in [9]. Moreover, the TGI in assay [10] is over 33.9 µM.
As for `C=COC(=O)N[C@H]1CCc2cc(OC)c(OC)c(OC)c2-c2ccc(SC)c(=O)cc21`, the TGI in assay [1] was over 15.5 µM; in assay [4], 86.5 µM; in assay [5], 0.0769 µM; in assay [6], 59.8 µM; in assay [7] it was under 0.01 µM; in assay [8], over 100 µM. In addition, the TGI in [9] is over 62.3 µM; in assay [10] it was under 0.0464 µM; in [11] it was under 0.01 µM; in [12] it was 0.0311 µM.
Regarding `C[Si](C)(C)/C(Br)=C\CCN1C(=O)CCC1=O`, the TGI in assay [1], in [2], in assay [3], in assay [4], in assay [5] and in assay [7] was over 100 µM throughout. The TGI in assay [8], in [9], in assay [10] and in assay [12] was over 100 µM each time.
For the compound `O=C1CCC(=O)c2c1c(O)c1ccncc1c2O`, the TGI in assay [1] is 34.7 µM; in [2], 25.4 µM; in assay [3], 28.1 µM; in assay [4], 33 µM; in assay [5], 36.4 µM; in assay [7] it was 20.8 µM. For the same compound, the TGI in assay [8] worked out at 30.2 µM; in assay [9], 32.7 µM; in [10], 29 µM; in [12] it was 7.24 µM.
As for `C[Si](C)(C)/C(I)=C/CO`, the TGI in [4] is 96.9 µM; in assay [5], 58.3 µM; in assay [7], 31.1 µM; in assay [8], over 100 µM; in assay [9] it was 31.9 µM; in [10], 39.9 µM. The TGI in assay [12] amounted to 73.1 µM.
As to `CC(C)(C)[Si](C)(C)OC1C(=O)C[C@H]2CCCC[C@@H]12` (some centres not stated), the TGI in assay [2], in assay [3], in assay [4], in assay [5], in assay [7] and in assay [8] was over 100 µM in each case. Besides, the TGI in assay [9], in assay [10] and in assay [12] was over 100 µM each time.
For `COC(=O)C1=C(C(=O)OC)C2=S(SC3=C2CCCC3)S1` (configuration not stated), the TGI in assay [3] is over 100 µM; in assay [4] it was over 100 µM; in assay [5], over 100 µM; in assay [7], over 100 µM; in assay [8] it was 30 µM; in assay [10], 74 µM. Besides, the TGI in assay [12] was found to be 40.1 µM.
On to `COc1ccc2c(c1)c[n+](C)c1c3cc(OC)c(OC)cc3ccc21`, for which the TGI in assay [1] is 13.2 µM; in assay [2], 7.14 µM; in assay [3] it was 18 µM; in [4], 5.37 µM and 24 µM; in assay [5] it was 17.8 µM; in assay [7] it was 3.5 µM and 2.99 µM. Further, the TGI in assay [8] was 7.25 µM; in assay [9], 17.1 µM; in assay [10], 3.5 µM and 13.9 µM; in assay [11], 11.4 µM and 21.3 µM; in [12], 15 µM. In addition, the GI50 was 2.13 µM and 11.2 µM in assay [4]; 5.06 µM in assay [5]; 1.95 µM and 6.15 µM in assay [10]; 3.1 µM and 8.21 µM in assay [11].
As for `CN(C)CCNC(=O)c1cccc2c(Nc3ccc(S(=O)(=O)N=C(N)N)cc3)c3ccccc3nc12`, the TGI in assay [1] was over 100 µM; in [2], 15.1 µM; in [3] it was over 100 µM; in assay [4] it was over 100 µM; in assay [5], 75.2 µM; in assay [7], 32.2 µM. The TGI was over 100 µM in assay [8], 47.4 µM in [9] and 36.7 µM in assay [10].
In the case of `O=[N+]([O-])c1ccc(-c2cnc3ccccn23)cc1`, the TGI in [1], in assay [2], in [5], in assay [7], in [8] and in assay [9] was over 100 µM throughout. In addition, the TGI in [10] and in [12] was over 100 µM in each case.
Regarding `Nc1ccn(C2OC(CO)C(O)C2O)c(=O)n1` (configuration not stated), the TGI in assay [1] is > 100 µM and > 29.3 µM and 53.7 µM; in assay [2], 417 µM; in assay [3] it was over 500 µM; in assay [4] it was over 500 µM; in assay [5], > 100 µM and 417 µM and > 500 µM; in assay [6], > 100 µM and 434 µM and > 500 µM. The TGI in assay [7] was over 500 µM; in [8], over 500 µM; in assay [9], over 494 µM; in assay [12], > 100 µM and 500 µM and > 500 µM. The GI50 in assay [5] was 0.661 µM; in [6] it was 0.0408 µM; in assay [10], 16.8 µM; in assay [11], 0.536 µM; in [12] it was 3.74 µM.
As to `Cn1cnnc1Sc1c([N+](=O)[O-])ncn1C`, the TGI in assay [1], in assay [2], in [3], in assay [4], in assay [5] and in [7] was over 100 µM throughout. The TGI in assay [8] was 63 µM; in assay [9], over 100 µM; in [10], over 100 µM; in [12], over 100 µM.
In the case of `C[C@]12CCC(=O)C=C1CC[C@@H]1C2CC[C@]2(C)Nc3[nH]ncc3CC12` (some centres not stated), the TGI in assay [2], in assay [3], in assay [4], in assay [5], in assay [8] and in assay [9] was over 100 µM each time. In addition, the TGI in assay [10] and in assay [12] was over 100 µM each time.
On to `CC(C(=O)O)c1cccc(Oc2ccccc2)c1` (configuration not stated), for which the GI50 in [1], in assay [4], in assay [5], in assay [6], in assay [7] and in assay [10] was over 100 µM in each case. The GI50 in assay [11] and in [12] was over 100 µM throughout. In addition, the TGI in assay [1], in assay [4], in [5], in assay [6], in assay [7] and in [10] was over 100 µM in each case. Besides, the TGI in assay [11] and in assay [12] was over 100 µM throughout.
Regarding `O=C(O)c1ccc(C(=O)O)c2c(C(=O)O)ccc(C(=O)O)c12`, the TGI in assay [1], in assay [4], in [5], in [6], in [7] and in assay [10] was over 100 µM throughout. Besides, the TGI in [11] and in assay [12] was over 100 µM throughout.
`CS/C(=C(\S)c1ccccc1)c1ccccc1`: the TGI in [1], in [2], in [3], in assay [4], in [5] and in assay [7] was over 100 µM in each case. For the same compound, the TGI in [8], in [9], in assay [10] and in assay [12] was over 100 µM throughout.
Take `Clc1nc(Cl)nc(Nc2cccc3ccccc23)n1`: the GI50 in assay [1] was 18.3 µM; in assay [4] it was over 100 µM; in [5] it was 64 µM; in assay [6], 36.3 µM; in assay [7] it was over 100 µM; in assay [10], over 100 µM. In addition, the GI50 in assay [11] and in assay [12] was over 100 µM in each case. Further, the TGI in assay [1] is 48.3 µM; in assay [4], over 100 µM; in assay [5] it was over 100 µM; in assay [6], over 100 µM; in assay [7], over 100 µM; in assay [10] it was over 100 µM. For the same compound, the TGI in assay [11] and in assay [12] was over 100 µM throughout.
Regarding `O=C(Nc1cc(C(F)(F)F)ccc1Cl)c1cccc(NC2=C(Cl)C(=O)N(Cc3ccccc3)C2=O)c1`, the GI50 in assay [1] is 1.26 µM; in [4] it was 34.2 µM; in assay [5], 29.1 µM; in [6], 5.76 µM; in assay [7], 41.5 µM; in assay [10], 26.4 µM. Besides, the GI50 in assay [11] was 54.4 µM; in assay [12] it was 34.3 µM. Besides, the TGI in assay [1] was 3.16 µM; in [4], over 100 µM; in [5] it was over 100 µM; in [6], 85.6 µM; in assay [7] it was over 100 µM; in assay [10] it was 53.7 µM. For the same compound, the TGI in [11] and in assay [12] was over 100 µM each time.
Regarding `CSc1nc(NC2OC(COC(C)=O)C(OC(C)=O)C(OC(C)=O)C2OC(C)=O)c(N=CC=Nc2c(NC3OC(COC(C)=O)C(OC(C)=O)C(OC(C)=O)C3OC(C)=O)nc(SC)n(C)c2=O)c(=O)n1C` (configuration not stated), the GI50 in [1] is over 50 µM; in assay [4] it was 30.7 µM; in assay [5], over 50 µM; in assay [6], over 50 µM; in [7], over 50 µM; in [11] it was over 50 µM. Moreover, in assay [12], the GI50 is over 50 µM. The TGI is over 100 µM in assay [1]; over 100 µM in assay [2]; over 100 µM in assay [3]; 50 µM and > 97.1 µM in [4]; > 50 µM and 98.8 µM in assay [5]; over 100 µM in [6]. Moreover, the TGI was over 100 µM in [7]; over 100 µM in assay [8]; 30.3 µM in assay [9]; 50 µM and 69.3 µM in [10]; over 100 µM in assay [11]; over 50 µM in [12].
